Read-outs that look alike come from different tables or passages of the source. Each block holds one compound with its values, some of them ahead of it.
Key:
Assay type in all cases: cell-based
[1] = target: T1, GATA4–NKX2-5 transcriptional synergy (Mus musculus, UniProt P42582+Q08369); test: GATA4–NKX2-5 transcriptional synergy luciferase reporter assay (3xNKE reporter, COS-1 cells)
T1 construct: expressed in transfected cells; host or cells: COS-1

[2] = target: T2, NKX2-5 transcriptional activity (Mus musculus, UniProt P42582); test: NKX2-5 luciferase reporter assay (3xNKE reporter, COS-1 cells); conditions: for activity at 3 µM: read-out: NKX.3µM; for activity at 10 µM: read-out: NKX.10µM
T2 construct: expressed in transfected cells; host or cells: COS-1
Protocol: (§1) To screen compounds for the GATA4–NKX2-5 interaction, we have developed a luciferase reporter assay based on their property to activate gene transcription synergistically through the NKX2-5 binding site on DNA.[28] In this assay, we transfected mammalian COS-1 cells with protein expression vectors for GATA4 and NKX2-5 proteins together with artificial luciferase reporter vector containing three high affinity binding sites for NKX2-5 (NKE). […] All 257 compounds were tested in two concentrations, 3 and 10 μM. Compounds either inhibited, enhanced, or had no effect on the GATA4–NKX2-5 transcriptional synergy. To investigate the selectivity of the active compounds, we tested their effects on NKX2-5 transcriptional activity by using the same luciferase reporter vector as in transcriptional synergy assay with three NKE sites (Figure 3B). Furthermore, we used GATA luciferase reporter assay to examine if compounds have an effect on GATA4 transcriptional activity. In this assay, we cotransfected the cells with a GATA4 protein expression vector and a reporter vector with tandem GATA4 binding sites (Figure 3C). Previously we have reported that compound 1 inhibited the GATA4–NKX2-5 transcriptional synergy at micromolar concentrations (IC50 = 3 μM).[29]
(§2) The plasmids expressing mouse GATA4 protein, pMT2-GATA4, and empty pMT2 were gifts from D. B. Wilson (Department of Pediatrics, St. Louis Children’s Hospital, St. Louis, MO).[44] The plasmids expressing mouse NKX2-5 protein, pMT2-NKX2-5, have been described earlier.[28] The luciferase reporter plasmid used in GATA4–NKX2-5 transcriptional synergy assay and NKX transcriptional assay, pGL3-3xHA, contains three high affinity binding sites for NKX2-5.[28] The luciferase reporter plasmid used in GATA transcriptional assay, NP-112, contains tandem GATA-sites and minimal promoter of rat brain natriuretic peptide (BNP) gene.[45] The pGL3-BNP luciferase reporter containing −534/+4 bp rat BNP proximal promoter described previously was used in hypertrophy assay.[46]
(§3) The primary screening assay of compounds’ effect on GATA4–NKX2-5 transcriptional synergy and COS-1 cell culturing has been described earlier.[33] […] (Kinnunen et al., unpublished observation). Briefly, COS-1 cells were seeded at 14 000 cells/well in Isoplate-96 microplates (PerkinElmer, Turku, Finland) and grown overnight. The cells were transfected with the luciferase reporter plasmid pGL3-3xHA 100 ng/well and equal amounts of expression plasmids pMT2-GATA4 and pMT2-NKX2-5 total 50 ng/well. To verify the synergistic effect, the cells were transfected with pMT2-GATA4 or pMT2-NKX2-5 25 ng/well, and the total DNA concentration was adjusted to 50 ng/well with empty pMT2 plasmid. In NKX2-5 and GATA4 luciferase reporter assays, the cells were transfected with reporter plasmid pGL3-3xHA or NP-112 (100 ng/well) and expression plasmid pMT2-NKX2-5 or pMT2-GATA4 (25 ng/well). The ratio of DNA/transfection reagent (Fugene 6, Promega) was 1:3 in all assays. The transfections were performed in serum and antibiotics free media for 6 h. The cells were treated with compounds or vehicle (0.1% DMSO) for 24 h, and the luminescence was measured using neolite Reporter Gene Assay System (PerkinElmer, Turku, Finland) and Victor2 plate reader (PerkinElmer, Turku, Finland).
(§4) Raw luciferase data were analyzed in Excel, and clear outliers were removed from triplicates by using the Grubb’s test. Data analysis was performed using R.[49] The luciferase data were first normalized on the basis of the combined mean value of controls. For data visualization and creation of figures, the following R packages were used: ggplot2, cowplot, RColorBrewer, and pheatmap. The heatmaps of the toxicity data were produced with GraphPad Prism 7.00 (GraphPad Software, La Jolla, CA). Statistical significance of luciferase reporter assay data was evaluated by randomized block analysis of variance followed by Dunnett’s post hoc test. […]

[3] = target: T3, GATA4 transcriptional activity (Mus musculus, UniProt Q08369); test: GATA4 luciferase reporter assay (tandem GATA-site reporter, COS-1 cells)
T3 construct: expressed in transfected cells; host or cells: COS-1
Protocol: as §1, §2, §3, §4

[4] = COS-1, 3 µM, luciferase reporter activity, % of control
[5] = COS-1, 10 µM, luciferase reporter activity, % of control
[6] = COS-1, compound 3 µM, luciferase reporter activity, spread in separate STDEV column
[7] = COS-1, compound 10 µM, luciferase reporter activity, spread in separate STDEV column
[8] = 3 µM compound, GATA4–NKX2-5 transcriptional synergy reporter, COS-1 cells
[9] = 3 µM compound, NKX2-5 luciferase reporter, COS-1 cells
[10] = 3 µM compound, GATA4 luciferase reporter, COS-1 cells
[11] = 10 µM compound, GATA4–NKX2-5 transcriptional synergy reporter, COS-1 cells
[12] = 10 µM compound, NKX2-5 luciferase reporter, COS-1 cells
[13] = 10 µM compound, GATA4 luciferase reporter, COS-1 cells
[14] = COS-1, compound at 3 µM, luciferase reporter activity, % of control

T1 sequence (Q08369 whole entry): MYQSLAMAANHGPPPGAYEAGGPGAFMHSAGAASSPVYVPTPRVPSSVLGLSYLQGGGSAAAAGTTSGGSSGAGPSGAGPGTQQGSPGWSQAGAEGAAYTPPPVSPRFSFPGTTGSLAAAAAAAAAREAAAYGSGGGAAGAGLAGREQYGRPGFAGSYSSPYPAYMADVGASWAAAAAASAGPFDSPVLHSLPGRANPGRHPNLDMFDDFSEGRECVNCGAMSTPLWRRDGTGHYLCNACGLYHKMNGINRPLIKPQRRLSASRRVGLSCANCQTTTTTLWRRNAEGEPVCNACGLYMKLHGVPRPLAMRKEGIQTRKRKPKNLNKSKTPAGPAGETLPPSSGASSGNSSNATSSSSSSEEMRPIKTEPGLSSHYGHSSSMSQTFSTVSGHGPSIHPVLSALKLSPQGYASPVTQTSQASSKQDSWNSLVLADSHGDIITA
T1 sequence (P42582 whole entry): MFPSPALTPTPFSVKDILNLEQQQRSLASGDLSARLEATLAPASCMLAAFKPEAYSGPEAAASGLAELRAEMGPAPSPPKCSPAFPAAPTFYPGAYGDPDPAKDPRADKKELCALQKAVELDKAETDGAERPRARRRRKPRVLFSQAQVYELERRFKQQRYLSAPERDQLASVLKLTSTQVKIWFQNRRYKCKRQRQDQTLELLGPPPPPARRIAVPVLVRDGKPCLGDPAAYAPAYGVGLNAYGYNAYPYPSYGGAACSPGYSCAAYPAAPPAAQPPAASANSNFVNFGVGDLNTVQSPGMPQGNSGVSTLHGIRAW
T3 sequence (Q08369 whole entry): as the sequence (Q08369 whole entry) above
T2 sequence (P42582 whole entry): as the sequence (P42582 whole entry) above

activity at 3 µM [1, 4]: 90.9%
activity at 3 µM [2, 4]: 111%
activity at 3 µM [3, 4]: 106%
Structure (SMILES): CCC(=O)c1ccc(OCc2c(-c3ccccc3)noc2C)cc1 [Compound 34a, 1-[4-[(5-Methyl-3-phenylisoxazol-4-yl)methoxy]phenyl]propan-1-one]

activity at 3 µM [1, 8]: 85.5%
activity at 3 µM [2, 9]: 82.5%
activity at 3 µM [3, 10]: 73.9%
Structure (SMILES): Cc1onc(-c2ccccc2)c1COc1ccc(C(=O)OCCCC#N)cc1 [Compound 35b, 3-Cyanopropyl 4-[(5-Methyl-3-phenylisoxazol-4-yl)methoxy]benzoate]

activity at 3 µM [1, 8]: 97.5%
activity at 10 µM [1, 11]: 104%
activity at 3 µM [2, 9]: 124%
activity at 10 µM [2, 12]: 164%
activity at 3 µM [3, 10]: 120%
activity at 10 µM [3, 13]: 143%
Structure (SMILES): CCc1noc(C)c1C(=O)Nc1ccc(N(CC)CC)cc1 [Compound 39b]

activity at 3 µM [1, 14]: 107%
effect on NKX2-5 transcriptional activity (in words) [2]: did not affect
activity at 3 µM [2, 14]: 157%
effect on GATA4 transcriptional activity (in words) ([3]; 10 µM): slightly increased
activity at 3 µM [3, 14]: 86.1%
activity at 10 µM ([3]; COS-1, compound at 10 µM, luciferase reporter activity, % of control): 112%
Structure (SMILES): CCN(CC)c1ccc(NC(=O)c2c(-c3ccccc3Cl)noc2C)cc1 [Compound 39k]

activity at 3 µM [1, 8]: 119%
activity at 10 µM [1, 11]: 105%
activity at 3 µM [2, 9]: 122%
activity at 10 µM [2, 12]: 106%
activity at 3 µM [3, 10]: 108%
Structure (SMILES): CCN(CC)c1ccc(NC(=O)c2c(-c3ccoc3)noc2C)cc1 [Compound 39n]

activity at 3 µM [1, 6]: 97.1%
activity at 10 µM [1, 7]: 102%
activity at 3 µM [2, 6]: 101%
activity at 3 µM [3, 6]: 89.2%
activity at 10 µM [3, 7]: 101%
Structure (SMILES): CCN(CC)c1ccc(NC(=O)c2c(-c3cc(C)on3)noc2C)cc1 [Compound 39o]

activity at 10 µM [1, 7]: 102%
activity at 3 µM [2, 6]: 83.8%
activity at 3 µM [3, 6]: 85.9%
Structure (SMILES): CCN(CC)c1ccc(NC(=O)c2c(-c3ccc(C)s3)noc2C)cc1 [Compound 39p]

activity at 3 µM [1, 4]: 83.4%
activity at 3 µM [2, 4]: 106%
activity at 3 µM [3, 4]: 127%
Structure (SMILES): CCN(CC)c1ccc(NC(=O)c2c(C)nc3ccccn23)cc1 [Compound 47ab]

activity at 3 µM [1, 6]: 110%
activity at 3 µM [2, 6]: 108%
Structure (SMILES): CCN(CC)c1ccc(NC(=O)c2cn(C)nc2-c2cc(C)on2)cc1 [Compound 47f]

activity at 3 µM [1, 6]: 118%
activity at 10 µM [1, 7]: 104%
activity at 3 µM [2, 6]: 114%
activity at 10 µM [2, 7]: 106%
activity at 3 µM [3, 6]: 134%
activity at 10 µM [3, 7]: 143%
Structure (SMILES): CCN(CC)c1ccc(NC(=O)c2cc(C)oc2-c2cc(C)on2)cc1 [Compound 47h]

activity at 3 µM [1, 6]: 105%
effect on NKX2-5 transcriptional activity (in words) [2]: did not affect
activity at 3 µM [3, 6]: 119%
Structure (SMILES): CCN(CC)c1ccc(NC(=O)c2cc(C)sc2-c2cc(C)on2)cc1 [Compound 47l]

activity at 3 µM [1, 6]: 116%
activity at 3 µM [2, 6]: 116%
activity at 10 µM [2, 7]: 114%
Structure (SMILES): CCN(CC)c1ccc(NC(=O)c2cn(C)cc2-c2cc(C)on2)cc1 [Compound 47m]

More lines, now with the values behind:

Structure (SMILES): Cc1onc(-c2ccccc2)c1C(=O)Nc1ccc(-c2ccccc2)cc1 [Compound 4f]
activity at 3 µM [1, 4]: 72.7%
activity at 10 µM [1, 5]: 112%
activity at 3 µM [2, 4]: 91%
activity at 3 µM [3, 4]: 102%
activity at 10 µM [3, 5]: 114%

Structure (SMILES): Cc1onc(-c2ccccc2)c1C(=O)Nc1nc(C(C)(C)C)cs1 [Compound 4k, N-[4-(tert-Butyl)thiazol-2-yl]-5-methyl-3-phenylisoxazole-4-carboxamide]
activity at 3 µM [1, 6]: 117%
activity at 10 µM [1, 7]: 115%
activity at 3 µM [2, 6]: 97.7%
activity at 3 µM [3, 6]: 109%
activity at 10 µM [3, 7]: 114%

Structure (SMILES): Cc1onc(-c2ccccc2)c1C(=O)Nc1ccc(C(=O)OCCCC#N)cc1 [Compound 10b]
activity at 3 µM [1, 6]: 93%
activity at 3 µM [2, 6]: 105%
activity at 3 µM [3, 6]: 103%
activity at 10 µM [3, 7]: 114%

Structure (SMILES): Cc1onc(-c2ccccc2)c1C(=O)Nc1ccc(C(=O)OCCCCC#N)cc1 [Compound 10c]
activity at 3 µM [1, 6]: 101%
activity at 3 µM [2, 6]: 102%
activity at 10 µM [2, 7]: 147%
activity at 3 µM [3, 6]: 109%
activity at 10 µM [3, 7]: 102%

Structure (SMILES): CCN(CC)c1ccc(N(C)C(=O)c2c(-c3ccccc3)noc2C)cc1 [Compound 25a]
activity at 3 µM [1, 4]: 78.1%
activity at 10 µM [2, 5]: 101%

Structure (SMILES): CCN(CC)c1ccc(NC(=O)c2c(-n3cccc3)sc(C)c2C)cc1 [Compound 56]
activity at 3 µM [1, 8]: 93.8%
activity at 3 µM [2, 9]: 102%

Structure (SMILES): CC(C)c1ccc(NC(=O)c2noc3c2CCc2sccc2-3)cc1 [Compound 66]
activity at 3 µM ([1]; COS-1, GATA4-NKX2-5 transcriptional synergy luciferase reporter assay, compound at 3 µM): 132%
activity at 10 µM ([1]; COS-1, GATA4-NKX2-5 transcriptional synergy luciferase reporter assay, compound at 10 µM): 128%
activity at 3 µM ([2]; COS-1, NKX2-5 luciferase reporter assay, compound at 3 µM): 122%
activity at 10 µM ([2]; COS-1, NKX2-5 luciferase reporter assay, compound at 10 µM): 106%
activity at 10 µM ([3]; COS-1, GATA4 luciferase reporter assay, compound at 10 µM): 124%

Structure (SMILES): Cc1cc(-c2onc(C)c2C(=O)Nc2ccc3oc(-c4ccccc4)cc(=O)c3c2)no1 [Compound 73]
activity at 3 µM [1, 8]: 107%
activity at 10 µM [1, 11]: 114%
activity at 3 µM [3, 10]: 127%
activity at 10 µM [3, 13]: 123%

Structure (SMILES): CCN(c1ccc(NC(=O)c2c(C)noc2-c2cc(C)on2)cc1)C(C)C [Compound 74]
activity at 10 µM [1, 11]: 96.6%
activity at 3 µM [2, 9]: 85.2%
activity at 10 µM [2, 12]: 88.8%
activity at 3 µM [3, 10]: 103%
activity at 10 µM [3, 13]: 125%

Structure (SMILES): CN(C)c1ccc(/N=C/c2c[nH]nc2-c2ccc(F)cc2)cc1 [Compound 75]
activity at 3 µM [1, 4]: 110%
activity at 10 µM [1, 5]: 100%
activity at 3 µM [2, 4]: 108%
activity at 10 µM [2, 5]: 145%
activity at 3 µM [3, 4]: 107%
activity at 10 µM [3, 5]: 122%

Structure (SMILES): Cc1onc(-c2ccccc2)c1C(=O)Nc1ccc(C(=O)OCCC#N)cc1 [Compound 76]
activity at 3 µM [1, 6]: 98.7%
activity at 10 µM [1, 7]: 104%
activity at 3 µM [2, 6]: 132%
activity at 10 µM [2, 7]: 126%
activity at 3 µM [3, 6]: 97.1%
activity at 10 µM [3, 7]: 73.4%

Structure (SMILES): C#CC[N+](CC)(CC)c1ccc(NC(=O)c2c(-c3ccccc3)noc2C)cc1 [Compound 77]
activity at 3 µM [1, 4]: 84%
activity at 10 µM [1, 5]: 101%
activity at 3 µM [2, 4]: 97.9%
activity at 10 µM [2, 5]: 117%
activity at 3 µM [3, 4]: 101%
activity at 10 µM [3, 5]: 95.3%

Structure (SMILES): CCN(CC)c1ccc(-n2c(=O)c3c(C)onc3c3ccccc32)cc1 [Compound 78]
effect on GATA4–NKX2-5 transcriptional synergy (in words) [1]: no effect
activity at 3 µM [1, 8]: 84.1%
activity at 10 µM [1, 11]: 100%
activity at 3 µM [2, 9]: 105%
activity at 10 µM [2, 12]: 112%
activity at 3 µM [3, 10]: 101%
activity at 10 µM [3, 13]: 113%

From publication PMC7076710, “Synthesis, Identification, and Structure–Activity Relationship Analysis of GATA4 and NKX2-5 Protein–Protein Interaction Modulators” (Journal of Medicinal Chemistry, 2019)
